Each block holds one compound with its values, some of them ahead of it.
Key:
[1] = tested on: human colon cancer cells HCT-116; experiment: MTT toxicity in colon cancer and normal colon cells (Part 5); format: cell-based; conditions: HCT-116, 24 hours
Method: (§1) Cell viability was determined by an MTT colorimetric assay. […] The reading reflected the number of viable cells and was expressed as a percentage of viable cells in the control. CCD-18Co cells were grown in EMEM. Both HCT-116 and HT-29 cells were cultured in McCoy's 5A medium. All of the above media were supplemented with 10% fetal bovine serum, 1% penicillin/streptomycin, and 1% glutamine, and the cells were kept in a 37° C. incubator with 95% humidity and 5% CO2.

[2] = tested on: human colon cancer cells HT-29; experiment: as above; format: cell-based; conditions: HT-29 (p53 mutant), 24 hours
Method: as §1

[3] = tested on: human colon fibroblast cells CCD-18Co; experiment: as above; format: cell-based; conditions: normal colon cells CCD-18Co, 24 hours
Method: as §1

HCT-116 cells [4] = experiment: Western blot analysis of apoptosis markers and p53 (Part 5); format: cell-based, human; conditions: HCT-116 (p53 wild-type), 24 hours; M2, 6S 10, 20 or 40 μM; 8S, M2′, 10S, M2″ 20 μM
Method: (§2) Cell lysates were prepared in ice-cold RIPA lysis buffer [25 mM Tris-HCl (pH 7.6), 150 mM NaCl, 1% NP-40, 1% sodium deoxycholate, 0.1% SDS, Thermo Fisher Scientific] supplemented with a protease inhibitor cocktail (AEBSF, aprotinin, bestatin, E-64, leupeptin and pepstatin A in DMSO with EDTA, Thermo Fisher Scientific). Protein content was measured by a Pierce BCA Assay Kit (Thermo Fisher Scientific). Protein contents of cell lysates (30 μg protein/lane) were resolved by SDS-PAGE. Proteins were then electro-transferred onto PVDF membranes and blots were blocked for one hour at room temperature in 1×TBS with 1% Casein (Bio-Rad Laboratories, Berkeley, Calif.). Blots were then incubated overnight at 4° C. with the desired primary antibody diluted in TBS with 0.5% Tween-20. Blots were then washed with TBS-Tween 20 and probed for 1 hour with the appropriate secondary antibody (1:1000). Protein bands were visualized with chemiluminescence using West Femto maximum detection substrate (Thermo Fisher Scientific). To confirm equal protein loading in each lane, immunoblots were stripped and re-probed for β-actin. Protein fold-induction was calculated by normalizing the intensity of the band of interest to β-actin first, and then to DMSO control lanes.

HT-29 cells = experiment: as above; format: cell-based, human; conditions: HT-29 (p53 mutant), 24 hours; M2, 6S 10, 20 or 40 μM; 8S, M2′, 10S, M2″ 20 μM
Method: as §2

[5] = tested on: human colon cancer cells HCT-116; experiment: MTT growth inhibition by M14 and M15 (Part 3); format: cell-based; conditions: Homo sapiens; HCT-116, 24 hours, 0 to 80 μM; read-out: IC50 (cell viability, MTT)
Method: as §1, with “Cell growth inhibition” for “Cell viability”, “by a” for “by an”, “control.” for “control. CCD-18Co cells were grown in EMEM.”, “and H-1299” for “and HT-29”

[6] = tested on: human lung cancer cells H-1299; experiment: MTT growth inhibition by M14 and M15 (Part 3); format: cell-based; conditions: Homo sapiens, NCI-H1299; H-1299, 24 hours, 0 to 80 μM; read-out: IC50 (cell viability, MTT)
Method: as §1, with “Cell growth inhibition” for “Cell viability”, “by a” for “by an”, “control.” for “control. CCD-18Co cells were grown in EMEM.”, “and H-1299” for “and HT-29”

[7] = tested on: human colon cancer cells HCT-116; experiment: Cell Death Detection ELISA apoptosis induction (Part 3); format: cell-based; conditions: 24 hours
Method: (§3) Human colon cancer cells HCT-116 and human lung cancer cells H-1299 were plated in 96-well plates at a density of 5000 cells/well and allowed to attach overnight at 37° C. M14, M15, or [6]-shogaol in DMSO, or DMSO control, diluted in media, were added to cells and incubated for an additional 24 hours at 37° C. After 24 hours, media containing compound was removed and cells were lysed in their respective wells with reagents from a Cell Death Detection ELISA^PLUS kit from Roche Applied Science (Mannheim, Germany). Samples were harvested after cell lysates were spun down at 300 g for 10 minutes. To streptavidin coated microplates, 20 μL samples were added, and mixed with 80 μL Immunoreagent, which consisted of anti-histone-biotin, and anti-DNA-POD, and incubated with gentle shaking for 2 hours at room temperature. After incubation, Immunoreagent was removed and samples were washed 3 times with 250 μL incubation buffer. Substrate solution, ABTS, was added to each well and color was developed for 15 minutes before stopping the reaction with ABTS stop solution and reading absorbance on a microplate reader at 430 nm. Experiments were performed in triplicate and the average is given in comparison to DMSO control with standard deviation.

[8] = tested on: human lung cancer cells H-1299; experiment: as above; format: cell-based; conditions: 24 hours
Method: as §3

A549 lung cancer cells = conditions: 6S 30 mg/kg, M2 30 mg/kg, M14 10 mg/kg, oral gavage 5×/week, 7 weeks
Method: Nu/J nude mice were obtained from Jackson Laboratories (Bar Harbor, Me.). Animals were randomized into 4 groups. A549 cells (5×10^6 cells) were implanted in both flanks of 8-weeks old Nu/J mice. One week after implantation, animals were given 100 μl of the following treatments through oral gavage 5 times/week: DMSO 0.25 ml/kg (control; n=4); 6S 10 mg/kg (n=4); 6S 30 mg/kg (n=4) or M2 30 mg/kg (n=5). Compounds were diluted in a solution of 5% DMSO in corn oil. Animal body weight and tumor volume were recorded for the duration of the experiment. Tumor volume was calculated by measuring the length and width of the tumors using a digital caliper and using the formula (Length×Width^2)/2. One hour before sacrifice, mice were given one last treatment dose as well as one intra-peritoneal injection of BrdU (7.5 mg/kg in 100 μl PBS). After 7 weeks, tumor tissues were harvested and weighed. A portion of the tumors was snap frozen in liquid nitrogen and another portion was placed in a histology cassette and immersed in formalin solution.
[…] tissues were sent to Precision Histology Lab (Oklahoma City, Okla.) for embedding in paraffin blocks. Then paraffin blocks were processed into 3-4 μm sections that were then put on microscope slides. Sections were then deparaffinized by using a succession of 3 baths of xylene (5 minutes each), 2 baths of absolute ethanol (5 minutes each), 95% ethanol for 3 minutes, 70% ethanol for 3 minutes, and rinsed in PBS. Immunostaining with TUNEL (terminal deoxynucleotidyl transferase dUTP nick end labeling) and BrdU staining kits was performed following manufacturer's recommendation. For staining quantification, sequential high-power field pictures of tumors were taken (10 pictures per tumor) using an A1 Zeiss microscope (Oberkochen, Germany). Images were processed using the Image J software, which was used to count positive, brown-colored cells in each field. Average number per tumor was calculated by averaging the number obtained for each field, and the average number of positive cells per group was obtained by averaging the values of each tumor belonging to the experimental group.
8 week-old nude mice (Jackson Laboratory, Maine) were randomized into 5 groups based on treatment (DMSO: n=4; 6S 10 mg/kg: n=4 (“6S 10”); 6S 30 mg/kg: n=4 (“6S 30”); M2 30 mg/kg: n=5 (“M2 30”); M14 10 mg/kg: n=4 (“M14 10”)). Animals were implanted with 5×10^6 A549 lung cancer cells (adenocarcinomic human alveolar basal epithelial cells) on each flank. The mice had access to food and water ad libitum. One week post implantation, the animals started receiving their respecting treatments through oral gavage (100 μl in corn oil and 5% DMSO), 5×/week. After 7 weeks of treatment, the tumor tissues were harvested.

[9] = tested on: human colon cancer cells HCT-116; experiment: MTT growth inhibition of human cancer and normal cells (Part 2); format: cell-based; conditions: Homo sapiens; HCT-116, 48 h, 0 to 80 μM
Method: (§4) Growth inhibition of human cancer and normal cells. Cell growth inhibition was determined by a MTT colorimetric assay. Human colon cancer cells HCT-116, human lung cancer cells H-1299, human colon fibroblast cells CCD-18Co, and human lung fibroblast cells IMR-90 were plated in 96-well microtiter plates with 3000 cells/well and allowed to attach for 24 h at 37° C. […] After the cells were cultured for 48 h, the medium was aspirated and cells were treated with 200 μL fresh medium containing 2.41 mmol/L MTT. […] The reading reflected the number of viable cells and was expressed as a percentage of viable cells in the control. Both HCT-116 and H-1299 cells were cultured in McCoy's 5A medium. CCD-18Co and IMR-90 cells were cultured in Eagle's modified essential medium (EMEM). All of the above media were supplemented with 10% fetal bovine serum, 1% penicillin/streptomycin, and 1% glutamine, and the cells were kept in a 37° C. incubator with 95% humidity and 5% CO2.

[10] = tested on: human lung cancer cells H-1299; experiment: as above; format: cell-based; conditions: Homo sapiens, NCI-H1299; H-1299, 48 h, 0 to 80 μM
Method: as §4

in vitro [11] = format: cell-based, human; conditions: human
Method: as §4

in vitro [12] = format: cell-based, human; conditions: human; remark: listed apart in the source
Method: as §4

H-1299 cells = experiment: TUNEL apoptosis assay (Part 2); format: cell-based, human; conditions: H-1299, 20 or 40 μM, 24 hours
Method: (§5) HCT-116 and H1299 cells were seeded in 6-well plates at 1×10^5 cells/well and incubated at 37° C. in 5% CO2 incubator. After 24 hours, fresh media supplemented with DMSO (control), [6]-shogaol, M2, M6, or M13 metabolites (20 μM or 40 μM) were added to the wells. After 6 or 24 hours incubation at 37° C. in 5% CO2 incubator, cells were washed and pre-treated for 15 min at room temperature with a solution of 20 μg/ml proteinase K. Cells were then washed twice with phosphate buffer saline pH 7.4 (PBS) and fixed for 10 min at room temperature using 10% neutral formaldehyde solution. After 2 washes in ddH2O, cells were resuspended in 100 μL ddH2O and applied on silanized microscope slides. Slides were incubated overnight at 37° C., and washed twice with PBS. TUNEL assay was then carried out according to the manufacturer's protocol. Cells were observed under 400× power using a Zeiss microscope A1 (Thornwood, N.Y.). 10 fields per slide were evaluated, and TUNEL+ cells (with brown coloration in the nucleus) were expressed as a percentage of the total number of cells contained in a field.

HCT-116 cells [13] = experiment: TUNEL apoptosis assay (Part 2); format: cell-based, human; conditions: HCT-116, 20 or 40 μM, 24 hours
Method: as §5

[14] = Kinetic study of [6]-shogaol metabolism to M6 in liver microsomes; conditions: human
Method: To estimate kinetic parameters of metabolism of [6]-shogoal to major product M6 in liver microsomes from human and other species, the incubation conditions were optimized to ensure that formation rate of M6 was in the linear range in relation to incubation time and protein concentration. [6]-Shogaol (7.81, 15.63, 31.25, 62.5, 125, 250, 500, 1000, and 2000 μM) was incubated with liver microsomes from mouse (MLM), rat (RLM), dog (DLM), monkey (CyLM), and human (HLM) (0.1 mg/mL each, respectively) for 30 minutes. All incubations were performed in triplicate. The apparent Km and Vmax values were calculated from analysis of experimental data according to the Michaelis-Menten equation, and the results were graphically represented (for HLM) by an Eadie-Hofstee plot. Kinetic constants were reported as the value+/−S.E. of the parameter estimate.

[15] = as above; format: in vitro ADME, monkey; conditions: cynomolgus, monkey
Method: (§6) All incubations were performed in triplicate.

[16] = as above; format: in vitro ADME; conditions: dog liver microsomes 0.1 mg/mL, 30 min
Method: as §6

[17] = as above; format: in vitro ADME, rat; conditions: rat
Method: as §6

[18] = as above; format: in vitro ADME, mouse; conditions: mouse
Method: as §6

- IC50 [5]: 43 µM
- IC50 [6]: 41.6 µM
SMILES: CCCCCCCC(=O)/C=C/c1ccc(O)c(OC)c1 [M15, (E)-1-(4′-hydroxy-3′-methoxyphenyl)-dec-1-en-3-one]
- induction of apoptosis compared to DMSO control ([7]; HCT-116, 10 μM): 1 fold
- induction of apoptosis compared to DMSO control ([8]; H-1299, 10 μM): ~2 fold

- IC50 [5]: 3.22 µM
- IC50 [6]: 3.04 µM
SMILES: CCCCC/C=C/C(=O)/C=C/c1ccc(O)c(OC)c1 [M14, (1E, 4E)-1-(4′-hydroxy-3′-methoxyphenyl)-deca-1,4-dien-3-one]
- induction of apoptosis compared to DMSO control ([7]; HCT-116, 1 μM): 2 fold
- induction of apoptosis compared to DMSO control ([7]; HCT-116, 10 μM): about 6 fold
- induction of apoptosis compared to DMSO control ([8]; H-1299, 1 μM): 1 fold
- induction of apoptosis compared to DMSO control ([8]; H-1299, 10 μM): 7-8 fold
- tumor size versus control group (A549 lung cancer cells): Reduction in tumor size

More lines, now with the values behind:

SMILES: CCCCCCC/C=C/C(=O)CCc1ccc(O)c(OC)c1 [8S, [8]-shogaol, reference compound]
- IC50 [1]: 22.8 µM
- IC50 [2]: 27.9 µM
- IC50 [3]: 105 µM
- p53 expression (Western blot) (HCT-116 cells [4]): increase in p53 accumulation
- p53 expression (Western blot) (HT-29 cells): increase in p53 accumulation

SMILES: CCCCCC=CC(O)CCc1ccc(O)c(OC)c1 (centres unmarked) [M6, 1-(4′-hydroxy-3′-methoxyphenyl)-4-decen-3-ol]
- IC50 [9]: 68.8 µM
- IC50 [10]: 61.3 µM
- IC50 at 48 h (in vitro [11]): > 100 µM
- IC50 at 48 h (in vitro [12]): > 100 µM
- induction of apoptosis (TUNEL) versus DMSO (H-1299 cells): did not display any apoptotic effect
- induction of apoptosis (TUNEL) versus DMSO (HCT-116 cells [13]): did not display any apoptotic effect
- Vmax of M6 formation [14]: 10.82 +/− 0.47 nanomoles per minute per milligram liver microsomes
- Vmax of M6 formation [15]: 2.99 +/− 0.28 nanomoles per minute per milligram liver microsomes
- Vmax of M6 formation [16]: 7.33 +/− 0.43 nanomoles per minute per milligram liver microsomes
- Vmax of M6 formation [17]: 8.19 +/− 0.48 nanomoles per minute per milligram liver microsomes
- Vmax of M6 formation [18]: 4.10 +/− 0.19 nanomoles per minute per milligram liver microsomes

SMILES: CCCCCCCCC/C=C/C(=O)CCc1ccc(O)c(OC)c1 [10S, [10]-shogaol, reference compound]
- IC50 [1]: 25.1 µM
- IC50 [2]: 23.9 µM
- IC50 [3]: 136 µM
- p53 expression (Western blot) (HCT-116 cells [4]): increase in p53 accumulation
- p53 expression (Western blot) (HT-29 cells): increase in p53 accumulation

From patent publication US9549911B2, “Ginger metabolites and uses thereof” (North Carolina A&T State University, priority 2012, dated 2017)
